Measured values published in ChEMBL document CHEMBL6115036, “Exploration of membrane-active cephalosporin derivatives as potent antibacterial agents against Staphylococcus aureus biofilms and persisters” (Eur J Med Chem, 2025).
Activity calls are given as the source filed them. The calls are words filed in the database; no cut-off is given here.

Legend:
Staphylococcus aureus [1] = assay: Antibacterial activity against Staphylococcus aureus infected in Kunming mouse model of subcutaneous abscess assessed as surviving bacteria in skin tissue at 10 mg/kg, sc measured after 48 hrs relative to control; format: functional
Staphylococcus aureus [2] = assay: Antibacterial activity against Staphylococcus aureus infected in Kunming mouse model of subcutaneous abscess assessed as reduction in bacterial load in skin tissue at 10 mg/kg, sc measured after 48 hrs relative to control; format: functional; design: scale not given: the % may be the effect or the level left
Staphylococcus aureus [3] = assay: Antibacterial activity against Staphylococcus aureus infected in Kunming mouse model of subcutaneous abscess assessed as reduction in number of bacteria in skin tissue at 5 to 10 mg/kg, sc measured after 48 hrs; format: functional, organism-based; details: dose 5-10 mg/kg
Staphylococcus aureus [4] = assay: Inhibition of biofilm formation in Staphylococcus aureus assessed as reduction in number of live bacterial count at 16 times MIC incubated for 24 hrs; format: functional
Enterococcus faecalis = assay: Antimicrobial activity against Enterococcus faecalis incubated for 16 to 18 hrs by broth dilution assay; format: functional; details: time 16-18 hrs
Staphylococcus aureus [5] = assay: Antimicrobial activity against Staphylococcus aureus incubated for 16 to 18 hrs by broth dilution assay; format: functional; details: time 16-18 hrs
[6] = tested on: Stenotrophomonas maltophilia; assay: Antimicrobial activity against Stenotrophomonas maltophilia incubated for 16 to 18 hrs by broth dilution assay; format: functional; details: time 16-18 hrs
Escherichia coli = assay: Antimicrobial activity against Escherichia coli incubated for 16 to 18 hrs by broth dilution assay; format: functional; details: time 16-18 hrs
[7] = Hemolytic activity in sheep red blood cells incubated for 1 hr; format: toxicity, cell-based, Ovis aries, Erythrocyte
Staphylococcus aureus [8] = assay: Disruption of cell membrane in Staphylococcus aureus assessed as nucleic acid leakage at 32 ug/ml measured after 2 hrs by fluorescence based analysis; format: functional, organism-based; details: dose 32.0 µg/ml
Staphylococcus aureus [9] = assay: Disruption of cell membrane in Staphylococcus aureus assessed as protein leakage at 32 ug/ml measured after 2 hrs by fluorescence based analysis; format: functional, organism-based; details: dose 32.0 µg/ml
Staphylococcus aureus [10] = assay: Bactericidal activity against Staphylococcus aureus assessed as reduction in bacterial colony count at 4 to 8 times MIC incubated for 8 hrs by time kill assay; format: functional, organism-based
Staphylococcus aureus [11] = assay: Antibacterial activity against Staphylococcus aureus in presence of 50% sheep plasma; format: functional, organism-based
Staphylococcus aureus [12] = assay: Antibacterial activity against Staphylococcus aureus in presence of 50% FBS; format: functional, organism-based
Staphylococcus aureus [13] = assay: Bactericidal activity against Staphylococcus aureus measured for 3 to 6 hrs in presence of 50% sheep plasma; format: functional, organism-based; details: time 3-6 hrs
Staphylococcus aureus [14] = assay: Induction of resistance development in Staphylococcus aureus at sub-MIC measured after 20 passages; format: functional, organism-based
Staphylococcus aureus [15] = assay: Induction of resistance development in drug-resistant Staphylococcus aureus assessed as fold increase in MIC of levofloxacin at sub-MIC measured after 20 passages relative to control; format: functional
Staphylococcus aureus [16] = assay: Induction of resistance development in drug-resistant Staphylococcus aureus at sub-MIC measured after 20 passages in presence of norfloxacin; format: functional, organism-based
Staphylococcus aureus [17] = assay: Induction of resistance development in drug-resistant Staphylococcus aureus at sub-MIC measured after 20 passages in presence of ciprofloxacin; format: functional, organism-based
Staphylococcus aureus [18] = assay: Induction of resistance development in drug-resistant Staphylococcus aureus at sub-MIC measured after 20 passages in presence of levofloxacin; format: functional, organism-based
Staphylococcus aureus [19] = assay: Induction of resistance development in drug-resistant Staphylococcus aureus at sub-MIC measured after 20 passages in presence of linezolid; format: functional, organism-based
Staphylococcus aureus [20] = assay: Induction of resistance development in drug-resistant Staphylococcus aureus at sub-MIC measured after 20 passages in presence of rifampicin; format: functional, organism-based
Staphylococcus aureus [21] = assay: Induction of resistance development in drug-resistant Staphylococcus aureus at sub-MIC measured after 20 passages in presence of vancomycin; format: functional, organism-based
Staphylococcus aureus [22] = assay: Induction of resistance development in drug-resistant Staphylococcus aureus at sub-MIC measured after 20 passages in presence of cefuroxime sodium; format: functional, organism-based
Staphylococcus aureus [23] = assay: Induction of resistance development in drug-resistant Staphylococcus aureus at sub-MIC measured after 20 passages in presence of ampicillin sodium; format: functional, organism-based
Staphylococcus aureus [24] = assay: Inhibition of metabolic activity in Staphylococcus aureus incubated for 6 hrs by Alamar blue assay; format: functional, organism-based
Staphylococcus aureus [25] = assay: Induction of intracellular ROS accumulation in Staphylococcus aureus at 1 to 4 times MIC incubated overnight by DCFH-DA dye based analysis; format: functional, organism-based
Staphylococcus aureus [26] = assay: Antibacterial activity against Staphylococcus aureus assessed as effect on quiescent cells at 100 to 200 times MIC incubated for 24 hrs; format: functional, organism-based
Staphylococcus aureus [27] = assay: Antibacterial activity against rifampicin-induced persistant Staphylococcus aureus assessed as decrease in CFU at 200 times MIC measured for 10 hrs; format: functional, organism-based
Staphylococcus aureus [28] = assay: Inhibition of biofilm formation in Staphylococcus aureus assessed as decrease in bacterial count at 32 times MIC incubated for 24 hrs by CLSM analysis; format: functional, organism-based
[29] = Cytotoxicity against human HeLa cells incubated for 24 hrs by CCK8 assay; format: toxicity, cell-based
[30] = Cytotoxicity against HUVEC cells incubated for 24 hrs by CCK8 assay; format: toxicity, cell-based; details: human
Staphylococcus aureus [31] = assay: Antibacterial activity against Staphylococcus aureus infected in Kunming mouse model of subcutaneous abscess assessed as decrease in neutrophil level in skin tissue at 5 mg/kg, sc measured after 48 hrs by H and E staining based analysis; format: functional, organism-based
Staphylococcus aureus [32] = assay: Antibacterial activity against Staphylococcus aureus infected in Kunming mouse model of subcutaneous abscess assessed as decrease in inflammation in skin tissue at 5 mg/kg, sc measured after 48 hrs by H and E staining based analysis; format: functional, organism-based
Staphylococcus aureus [33] = assay: Antibacterial activity against Staphylococcus aureus infected in Kunming mouse model of subcutaneous abscess assessed as decrease in inflammatory cell infiltration in skin tissue at 10 mg/kg, sc measured after 48 hrs by H and E staining based analysis; format: functional, organism-based
[34] = Toxicity in Kunming mouse model of subcutaneous abscess infected with Staphylococcus aureus assessed as damage in heart at 5 to 10 mg/kg, sc measured after 48 hrs by H and E staining based analysis; format: organism-based; details: in vivo, dose 5-10 mg/kg
[35] = Toxicity in Kunming mouse model of subcutaneous abscess infected with Staphylococcus aureus assessed as damage in liver at 5 to 10 mg/kg, sc measured after 48 hrs by H and E staining based analysis; format: organism-based; details: in vivo, dose 5-10 mg/kg
[36] = Toxicity in Kunming mouse model of subcutaneous abscess infected with Staphylococcus aureus assessed as damage in spleen at 5 to 10 mg/kg, sc measured after 48 hrs by H and E staining based analysis; format: organism-based; details: in vivo, dose 5-10 mg/kg
[37] = Toxicity in Kunming mouse model of subcutaneous abscess infected with Staphylococcus aureus assessed as damage in lung at 5 to 10 mg/kg, sc measured after 48 hrs by H and E staining based analysis; format: organism-based; details: in vivo, dose 5-10 mg/kg
[38] = Toxicity in Kunming mouse model of subcutaneous abscess infected with Staphylococcus aureus assessed as damage in kidney at 5 to 10 mg/kg, sc measured after 48 hrs by H and E staining based analysis; format: organism-based; details: in vivo, dose 5-10 mg/kg
[39] = Toxicity in Kunming mouse model of subcutaneous abscess infected with Staphylococcus aureus assessed as histopathological abnormalities in heart at 5 to 10 mg/kg, sc measured after 48 hrs by H and E staining based analysis; format: organism-based; details: in vivo, dose 5-10 mg/kg
[40] = Toxicity in Kunming mouse model of subcutaneous abscess infected with Staphylococcus aureus assessed as histopathological abnormalities in liver at 5 to 10 mg/kg, sc measured after 48 hrs by H and E staining based analysis; format: organism-based; details: in vivo, dose 5-10 mg/kg
[41] = Toxicity in Kunming mouse model of subcutaneous abscess infected with Staphylococcus aureus assessed as histopathological abnormalities in spleen at 5 to 10 mg/kg, sc measured after 48 hrs by H and E staining based analysis; format: organism-based; details: in vivo, dose 5-10 mg/kg
[42] = Toxicity in Kunming mouse model of subcutaneous abscess infected with Staphylococcus aureus assessed as histopathological abnormalities in lung at 5 to 10 mg/kg, sc measured after 48 hrs by H and E staining based analysis; format: organism-based; details: in vivo, dose 5-10 mg/kg
[43] = Toxicity in Kunming mouse model of subcutaneous abscess infected with Staphylococcus aureus assessed as histopathological abnormalities in kidney at 5 to 10 mg/kg, sc measured after 48 hrs by H and E staining based analysis; format: organism-based; details: in vivo, dose 5-10 mg/kg

CCCCCCCCCC[n+]1ccc(-c2cc[n+](CC3=C(C(=O)[O-])N4C(=O)[C@@H](NC(=O)Cc5ccccc5)[C@H]4SC3)cc2)cc1.O=C([O-])C(F)(F)F
Activity (Staphylococcus aureus [1]): 0.02%
Activity (Staphylococcus aureus [2]): 99.98%
Activity (Staphylococcus aureus [3]): Active
Activity (Staphylococcus aureus [4]): ~1 10^3CFU/ml
MIC (Enterococcus faecalis): 4 µg/mL
MIC (Staphylococcus aureus [5]): 0.063 µg/mL
MIC [6]: 128 µg/mL
MIC (Escherichia coli): 128 µg/mL
HC50 at 1 h [7]: > 1280 µg/mL
Activity (Staphylococcus aureus [8]): inactive
Activity (Staphylococcus aureus [9]): inactive
Activity (Staphylococcus aureus [10]): Active
Activity (Staphylococcus aureus [11]): Active; Mic Value Of Compound In Plasma Was Equal To Mic In Mhb Medium
Activity (Staphylococcus aureus [12]): Active; Mic Value Of Compound In Serum Was Equal To Mic In Mhb Medium
Activity (Staphylococcus aureus [13]): Active
Activity (Staphylococcus aureus [14]): inactive
fold change (FC) (Staphylococcus aureus [15]): 8
Activity (Staphylococcus aureus [16]): inactive
Activity (Staphylococcus aureus [17]): inactive
Activity (Staphylococcus aureus [18]): inactive
Activity (Staphylococcus aureus [19]): inactive
Activity (Staphylococcus aureus [20]): inactive
Activity (Staphylococcus aureus [21]): inactive
Activity (Staphylococcus aureus [22]): inactive
Activity (Staphylococcus aureus [23]): inactive
inhibition (Staphylococcus aureus [24]): Dose-dependent-effect
Activity (Staphylococcus aureus [25]): inactive
Activity (Staphylococcus aureus [26]): inactive
Activity (Staphylococcus aureus [27]): inactive
inhibition (Staphylococcus aureus [28]): inactive
CC50 at 24 h [29]: 26.9 µg/mL
CC50 at 24 h [30]: > 64 µg/mL
Activity (Staphylococcus aureus [31]): Active
Activity (Staphylococcus aureus [32]): Active
Activity (Staphylococcus aureus [33]): Active; Compound Activity On Skin Was Similar To Healthy Mouse
Activity [34]: Non-toxic
Activity [35]: Non-toxic
Activity [36]: Non-toxic
Activity [37]: Non-toxic
Activity [38]: Non-toxic
Activity [39]: Non-toxic
Activity [40]: Non-toxic
Activity [41]: Non-toxic
Activity [42]: Non-toxic
Activity [43]: Non-toxic
